Measurements reported in patent US20250041377A1, “PHARMACEUTICAL USE” (ENLITISA (SHANGHAI) PHARMACEUTICAL CO., LTD., priority 2018, published 2025).
Where a SMILES comes first, the peptide text is derived from it. Where no end group is shown, it is not given here. [ ]: non-standard residue; d: D form. Dopa = N[C@@H](Cc1ccc(O)c(O)c1)C(=O)O; Hyp = O=C(O)[CH]1C[CH](O)CN1; 3Hyp = 3-hydroxyproline

Columns and labels:
[1] = Stability in phosphate buffer at different pHs (colour, HPLC peak area, purity); assay type: physicochemical; parameters: key to change of colour: NO means no colour changed was observed; + means a slight colour change is observed; ++ means a significant colour change is observed; conditions: for stability (overall result): phosphate buffer pH 5.3, 7.2, 8.1, room temperature then 45° C., 6 days
Experimental: Stabilities of Compounds A and B (obtained as described in Examples 1 and 3 above) were tested as follows.
10 mg of the compounds were each dissolved in 1 mL of distilled water to make a stock solution with a concentration of 10 mg/mL. Then, 200 μL of the stock solutions were diluted with 20 mM phosphate buffer (PB; Sigma-Aldrich China) with different pHs as indicated in Table 8 below.
All of the samples above were filtered through a 0.22 μm membrane (SLGV033RS; Sigma-Aldrich China) to remove potential bacteria in the solution on a super-clean bench after being prepared.
All the samples above were stored at room temperature and, three days later, were transferred to a 45° C. oven after initial sample analysis by HPLC (Column: Angilent ZORBAX Eclipse XDB-C18 (4.6×250 mm; 5 μm) (SN: USNH008244); buffer: A: 0.1% TFA in Water; B: 0.1% TFA in ACN; gradient: 0-25 minutes: 5%-30% B; 25-30 min: 100% B; flow rate: 1 mL/min; detection wavelength: 220 nm; sample volume: 20 μL).
The stability of the above samples was studied by observing the change of colour (Table 9), HPLC peak areas (Table 10) and purity (Table 11). The pH values for all samples were measured as being stable during the testing period.

[2] = system: full thickness skin wound on the back; assay: Acute wound model, remaining wound area; assay type: in vivo, C57BL/6 mice; conditions: for ratio of remaining wound area of initial wound: ± SD
Experimental: 6-8 weeks old male C57BL/6 mice were supplied by Changzhou Cvens Experimental Animal Co. Ltd (Changzhou, Jiangsu Province, China). Prior to any experiments being conducted, mice were housed under standardized conditions (at a constant temperature of 22±2° C., with alternating 12 hour periods of light and darkness), and were fed on a standard mouse diet with water, for about a week.
General anesthesia was induced using intraperitoneal 3% chloral hydrate (1 mL/10 g of body weight). The hair on the back was shaved by a baby hair shaver and depilated with cream. The skin area was wiped and sterilized with 75% alcohol twice.
An EMS skin biopsy punch (Electron Microscopy Sciences, P.O. Box 550, 1560 Industry Road, Hatfield, PA, USA) with a 18 mm diameter was used to make a round wound on the back. The full thickness of skin was removed and the depth of the wound reached the fascia. Wounds were left open without a suture.
The model group was given same amount of normal saline. There were 8 mice in each group.
Recombinant Human Epidermal Growth Factor (rhEGF, Shanghai Haohai Biological Technology Co. Ltd, 23/F, Shanghai, China) was purchased and prepared according to the manufacturer's instructions. The lyophilized rhEGF powder (100000 IU/vial) was dissolved in 20 mL of normal saline to make a solution with a concentration of 5000 IU/mL. The working dose of rhEGF for this experiment was 1285 IU/wound.
For this experiment, Compound A was also obtained from GL Biochem (Shanghai) Ltd. The peptide powders were stored at −20° C. and dissolved in saline at concentrations of 61.8 μg/mL (Compound A), and 61 μg/mL (Compound B). 50 μL of the solutions were applied onto the wound surfaces.
Wounds were dressed with gauze and transparent dresser after drug administration. Photographs were taken for each wound every other day from Day 0. Photos were scanned into a computer, and wound areas calculated using ImageJ image analysis software (National Institutes of Health, […]).
The unhealed wound area was expressed as a percentage of the original wound area: […]
where A0 and At refer to the initial area at Day 0 and the wound area at the date of measurement (time t), respectively.

[3] = 20 mM phosphate buffer pH 5.3, Day 0
[4] = 20 mM phosphate buffer pH 7.2, Day 0
[5] = 20 mM phosphate buffer pH 8.1, Day 0
[6] = pH 5.3, Day 1, room temperature
[7] = pH 5.3, Day 3 (Transfer to 45° C.)
[8] = pH 7.2, Day 1, room temperature
[9] = pH 7.2, Day 3 (Transfer to 45° C.)
[10] = pH 8.1, Day 1, room temperature
[11] = pH 8.1, Day 3 (Transfer to 45° C.)
[12] = Day 0, topical 50 μL/wound once daily, rhEGF 1285 IU/mouse, Compound A 3.09 μg/mouse, Compound B 3.05 μg/mouse

Compound: Ala-Lys-Pro-Ser-Tyr-Hyp-Hyp-Thr-DOPA-Lys (AKPSY[3Hyp][Hyp]T[Dopa]K; listed as Mytilus edulis) [Compound A]
- HPLC peak area as area % of Day 0's result [1, 3]: 100%
- change of colour [1, 3]: NO
- purity (HPLC) in stability study [1, 3]: 99.4%
- HPLC peak area as area % of Day 0's result [1, 4]: 100%
- change of colour [1, 4]: NO
- purity (HPLC) in stability study [1, 4]: 98.9%
- HPLC peak area as area % of Day 0's result [1, 5]: 100%
- change of colour [1, 5]: NO
- purity (HPLC) in stability study [1, 5]: 96.3%
- oxidation judged by HPLC purity ([1]; at pH 7.2 and pH 8.1): most of Compound A was oxidized
- HPLC peak area as area % of Day 0's result [1, 6]: 100.1%
- change of colour [1, 6]: NO
- purity (HPLC) in stability study [1, 6]: 99.2%
- HPLC peak area as area % of Day 0's result [1, 7]: 100.3%
- change of colour [1, 7]: NO
- purity (HPLC) in stability study [1, 7]: 99.4%
- HPLC peak area as area % of Day 0's result ([1]; pH 5.3, Day 6 (45° C.)): 99.6%
- change of colour ([1]; pH 5.3, Day 6 (45° C.)): NO
- purity (HPLC) in stability study ([1]; pH 5.3, Day 6 (45° C.)): 98.0%
- HPLC peak area as area % of Day 0's result [1, 8]: 89.0%
- change of colour [1, 8]: +
- purity (HPLC) in stability study [1, 8]: 92.1%
- HPLC peak area as area % of Day 0's result [1, 9]: 41.7%
- change of colour [1, 9]: +
- purity (HPLC) in stability study [1, 9]: 94.8%
- HPLC peak area as area % of Day 0's result ([1]; pH 7.2, Day 6 (45° C.)): 11.5%
- change of colour ([1]; pH 7.2, Day 6 (45° C.)): ++
- purity (HPLC) in stability study ([1]; pH 7.2, Day 6 (45° C.)): 13.8%
- HPLC peak area as area % of Day 0's result [1, 10]: 64.8%
- change of colour [1, 10]: ++
- purity (HPLC) in stability study [1, 10]: 61.0%
- HPLC peak area as area % of Day 0's result [1, 11]: 21.7%
- change of colour [1, 11]: ++
- purity (HPLC) in stability study [1, 11]: 52.5%
- HPLC peak area as area % of Day 0's result ([1]; pH 8.1, Day 6 (45° C.)): 3.8%
- change of colour ([1]; pH 8.1, Day 6 (45° C.)): ++
- purity (HPLC) in stability study ([1]; pH 8.1, Day 6 (45° C.)): 3.9%
- stability (overall result) [1]: stable only at pH 5.3
- ratio of remaining wound area of initial wound [2, 12]: 77.2 ± 4.1%
- ratio of remaining wound area of initial wound ([2]; Day 1, topical once daily): 100 ± 17.1%
- ratio of remaining wound area of initial wound ([2]; Day 2, topical once daily): 81.2 ± 11.2%
- ratio of remaining wound area of initial wound ([2]; Day 3, topical once daily): 74.2 ± 0.9%
- ratio of remaining wound area of initial wound ([2]; Day 4, topical once daily): 60.9 ± 7.3%
- ratio of remaining wound area of initial wound ([2]; Day 5, topical once daily): 50.5 ± 11.3%
- ratio of remaining wound area of initial wound ([2]; Day 6, topical once daily): 45.8 ± 4.7%

Compound: CC(N)C(=O)NC(CCCCN)C(=O)N1CCCC1C(=O)NC(CO)C(=O)NC(Cc1ccc(O)cc1)C(=O)N1CC(O)CC1C(=O)N1CC(O)CC1C(=O)NC(C(=O)NC(Cc1ccc(O)cc1)C(=O)NC(CCCCN)C(=O)O)C(C)O (stereo not drawn) [Compound B, Ala-Lys-Pro-Ser-Tyr-Hyp-Hyp-Thr-Tyr-Lys] (H-AKPSY[Hyp][Hyp]TYK-OH; configuration not given here)
- HPLC peak area as area % of Day 0's result [1, 3]: 100%
- change of colour [1, 3]: NO
- purity (HPLC) in stability study [1, 3]: 99.2%
- change of colour [1, 4]: NO
- purity (HPLC) in stability study [1, 4]: 99.6%
- HPLC peak area as area % of Day 0's result [1, 5]: 100%
- change of colour [1, 5]: NO
- purity (HPLC) in stability study [1, 5]: 99.5%
- HPLC peak areas over time ([1]; at pH 7.2 and pH 8.1): decreased significantly
- HPLC peak area as area % of Day 0's result [1, 6]: 100.0%
- change of colour [1, 6]: NO
- purity (HPLC) in stability study [1, 6]: 99.2%
- HPLC peak area as area % of Day 0's result [1, 7]: 99.9%
- change of colour [1, 7]: NO
- purity (HPLC) in stability study [1, 7]: 98.4%
- HPLC peak area as area % of Day 0's result ([1]; pH 5.3, Day 6 (45° C.)): 102.4%
- change of colour ([1]; pH 5.3, Day 6 (45° C.)): NO
- purity (HPLC) in stability study ([1]; pH 5.3, Day 6 (45° C.)): 99.0%
- change of colour [1, 8]: NO
- purity (HPLC) in stability study [1, 8]: 99.3%
- HPLC peak area as area % of Day 0's result [1, 9]: 100%
- change of colour [1, 9]: NO
- purity (HPLC) in stability study [1, 9]: 98.7%
- HPLC peak area as area % of Day 0's result ([1]; pH 7.2, Day 6 (45° C.)): 100.6%
- change of colour ([1]; pH 7.2, Day 6 (45° C.)): NO
- purity (HPLC) in stability study ([1]; pH 7.2, Day 6 (45° C.)): 98.2%
- HPLC peak area as area % of Day 0's result [1, 10]: 98.9%
- change of colour [1, 10]: NO
- purity (HPLC) in stability study [1, 10]: 99.4%
- HPLC peak area as area % of Day 0's result [1, 11]: 99.2%
- change of colour [1, 11]: NO
- purity (HPLC) in stability study [1, 11]: 98.4%
- HPLC peak area as area % of Day 0's result ([1]; pH 8.1, Day 6 (45° C.)): 97.0%
- change of colour ([1]; pH 8.1, Day 6 (45° C.)): NO
- purity (HPLC) in stability study ([1]; pH 8.1, Day 6 (45° C.)): 96.4%
- stability (overall result) [1]: stable at all pH values
- HPLC peak areas over time ([1]; three samples, pH 5.3, 7.2, 8.1): almost unchanged
- ratio of remaining wound area of initial wound [2, 12]: 79.4 ± 3.4%
- ratio of remaining wound area of initial wound ([2]; Day 1, topical once daily): 100 ± 4.5%
- ratio of remaining wound area of initial wound ([2]; Day 2, topical once daily): 96.7 ± 5.6%
- ratio of remaining wound area of initial wound ([2]; Day 3, topical once daily): 76.7 ± 4.8%
- ratio of remaining wound area of initial wound ([2]; Day 4, topical once daily): 66.5 ± 1.4%
- improvement rate ([2]; Day 4, versus model group): about 10%
- ratio of remaining wound area of initial wound ([2]; Day 5, topical once daily): 55.8 ± 1.3%
- ratio of remaining wound area of initial wound ([2]; Day 6, topical once daily): 51.9 ± 1.7%
